In patent publication US20140366441A1, “VEGETATIVE PROPAGATION OF SOYBEAN PLANTS IN A HYDROPONIC ENVIRONMENT” (Bayer Cropscience LP, priority 2012, published 2014):

Columns and labels:
[1] = tested on: Soybean shoots; assay: Root development of soybean shoot cuttings in 50 ml tubes with water or fertilizer solution ± NAA; assay type: in vivo; conditions: NAA at 10^-8 M and 10^-7 M; day 12; FIG. 1B
Method: Soybean shoots 10 to 15 cm long were cut from 2 similar plants and placed in 50 ml plastic tubes. One shoot was placed in each tube. The tubes contain 50 ml solutions according to the following design: The base solution was either water or a 1:200 dilution of fertilizer stock solution A, B and C. Stock A contains 958.6 grams of 21-5-20 All Purpose from Jack's Professional, 133.8 grams of 15-0-15 Dark Weather (Jack's Professional) and 60.0 grams of 10-0-0 Magnitrate Special (Peter's Excel) in 2 liter of water. Stock B contains 239.6 grams of 15-5-25 Poinsettia Peat-Lite Special (Jack's Professional) in 2 liters of water. Stock C contains 60.0 grams of Epsom salt (magnesium sulfate) in 1.0 liter of water. NAA (1-Naphthaleneacetic acid, Sigma-Aldrich) was added to either water or fertilizer solutions to concentrations of 0, 10^-9 M, 10^-8 M and 10^-7 M. There were 2 fertilizer (with or without) treatments×4 NAA treatments, totaling 8 treatments. The experiment was repeated 3 times, making a total of 24 tubes. The shoots in the solutions were placed in a greenhouse with 20 hour light cycles at 28° C. and 4 hour night cycles at 22° C.

[2] = tested on: Soybean shoot cuttings; assay: Root development of soybean shoot cuttings in tissue culture boxes with fertilizer solution and NAA; assay type: in vivo; conditions: higher NAA concentrations (10^-8 M, 10^-7 M, 10^-6 M tested); nine days; FIG. 3
Method: Three NAA concentrations at 10^-8 M, 10^-7 M and 10^-6 M with 5 cm, 10 cm and 15 cm long shoots were tested in replicate. Soybean shoot cuttings were taken from plants recovered from tissue culture. Tissue culture boxes (Vitro […]) were used to hold the solutions, and the lids with a 2.5 cm hole in the middle were used to hold the shoots with the help of a cylindrical sponge. NAA solution was obtained from PhytoTechnology Laboratories. Fertilizer was applied from the stock A, B, and C solutions described in Example 1. Three separate 5-liter fertilizer solutions were made by mixing 10 ml each of fertilizer stock solution A, B and C in 4970 ml of tap water. NAA stock solution was added to achieve a final concentration of 10^-8 M, 10^-7 M and 10^-6 M solution, respectively. Soybean shoot cuttings were inserted into the sponge roll, and placed through the lid of the tissue culture box. The shoots in the solutions were placed in a greenhouse with 20 hour light cycles at 27° C. and 4 hour night cycles at 21° C. Data was collected nine days after the shoots were placed in the boxes.

O=C(O)Cc1cccc2ccccc12 [NAA, 1-Naphthaleneacetic acid]
effect of NAA on root growth (root length) [1]: positive effects on root growth | effect of NAA on root length [2]: kept the roots shorter | effect of NAA on root number [2]: stimulated more roots from a shoot
